According to patent publication US6432934B1, “Methods and compositions for topical treatment of eye surface inflammation and related dry eye disease” (Advanced Vision Research, priority 1998, dated 2002):

Assays:
[1] = tested on: rabbit model for meibomianitis/meibomian gland dysfunction; experiment: Corneal epithelial glycogen level, rabbit model for meibomianitis/meibomian gland dysfunction; format: in vivo, New Zealand white rabbits; conditions: intramuscular 50 mg/kg/d, five days each week, weeks 8-20 post-op
[2] = tested on: rabbit model for meibomianitis/meibomian gland dysfunction; experiment: Conjunctival goblet-cell density, rabbit model for meibomianitis/meibomian gland dysfunction; format: in vivo, New Zealand white rabbits; conditions: intramuscular 50 mg/kg/d, five days each week, weeks 8-20 post-op

CN(C)[C@@H]1C(O)=C(C(N)=O)C(=O)[C@@]2(O)C(O)=C3C(=O)c4c(O)cccc4[C@@](C)(O)[C@H]3C[C@@H]12.Cl [systemic tetracycline, tetracycline hydrochloride]
effect on corneal glycogen [1]: no effect
effect on conjunctival goblet-cell density [2]: no effect
